Laboratory results taken from PubChem BioAssay (NCI).
Several values for one entry are separate records, joined by “and”; a condition that tells them apart may be missing. Equal values may be shown once.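 Tested at 5 concentrations; 48 h exposure; 96-well plates; endpoints linearly interpolated, else capped at highest concentration. GI50 = concentration required for 50% inhibition of growth. TGI: total growth inhibition.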

tested on: NCI-H460 lung; assay: NCI tumour cell line growth inhibition, 48 h

Compound | TGI | GI50
Cc1ccc2c(c1CCCC(C)(C)O)C(=O)C(=O)C(C(C)C)=C2O | > 100 µM | –
C=C1C(=O)O[C@H]2[C@H]1[C@@H](OC(=O)C=C(C)C)CC1=C[C@@H](C[C@@]3(C)O[C@@H]23)OC1=O | 5.83 µM and 31.8 µM | 2.27 µM and 14.9 µM
Cc1ccc2nc(-c3ccc(N)c(I)c3)sc2c1 | > 100 µM | –
O=C1NC(=O)C(CCO)(c2ccccc2)C(=O)N1 | > 100 µM | –
Cc1ccc(C2CC(c3ccco3)=NN2c2ccccc2)o1 (stereo unspecified) | > 100 µM | –
COC(=O)C(=C/c1ccc(OC)cc1)/C(C(=O)O)=C(/C)c1ccccc1 | > 100 µM | –
COC(=O)c1ccc(/C=C2\N=C(C)OC2=O)cc1 | > 100 µM | –
Nc1ccc(C(=O)NN2C(=O)C(Cl)C2c2ccccc2Cl)cc1 (stereo unspecified) | 16.5 µM | –
COC(=O)C1OC(Oc2cc(O)c3c(=O)cc(-c4ccc(O)cc4)oc3c2)C(O)C(O)C1O (stereo unspecified) | > 100 µM | –
C=CCn1c(=O)n(CC=C)c(=O)n(CC=C)c1=O | > 100 µM | –
O=C1C(Cl)C(c2ccccc2)N1n1cnc2ccccc2c1=O (stereo unspecified) | > 100 µM | –
CN(C)C(=O)OCOC(=O)N(C)C | > 100 µM | –
CC(=O)OCC1OC(Nc2ncc(-c3ccc(C)cc3)s2)C(OC(C)=O)C(OC(C)=O)C1OC(C)=O (stereo unspecified) | > 80.9 µM | –
CCCCN1C=CN2c3nc4cc(C)c(C)cc4n3C(C(=O)OC)=C(C(=O)OC)C12 (stereo unspecified) | > 100 µM | –

tested on: UACC-257 melanoma; assay: NCI tumour cell line growth inhibition, 48 h

Compound | TGI [µM]
C=C1C(=O)O[C@H]2[C@H]1[C@@H](OC(=O)C=C(C)C)CC1=C[C@@H](C[C@@]3(C)O[C@@H]23)OC1=O | 6.88
Cc1ccc2nc(-c3ccc(N)c(I)c3)sc2c1 | > 100
O=c1[nH]cc(COCC(F)(F)C(F)(F)C(F)(F)C(F)F)c(=O)[nH]1 | > 100
O=C1NC(=O)C(CCO)(c2ccccc2)C(=O)N1 | > 100
COC(=O)C(=C/c1ccc(OC)cc1)/C(C(=O)O)=C(/C)c1ccccc1 | > 100
Nc1ccc(C(=O)NN2C(=O)C(Cl)C2c2ccccc2Cl)cc1 (stereo unspecified) | 26.8
COC(=O)C1OC(Oc2cc(O)c3c(=O)cc(-c4ccc(O)cc4)oc3c2)C(O)C(O)C1O (stereo unspecified) | > 100
C=CCn1c(=O)n(CC=C)c(=O)n(CC=C)c1=O | > 100
O=C1C(Cl)C(c2ccccc2)N1n1cnc2ccccc2c1=O (stereo unspecified) | > 100
CN(C)C(=O)OCOC(=O)N(C)C | > 100
CC(=O)OCC1OC(Nc2ncc(-c3ccc(C)cc3)s2)C(OC(C)=O)C(OC(C)=O)C1OC(C)=O (stereo unspecified) | 58.3
CCCCN1C=CN2c3nc4cc(C)c(C)cc4n3C(C(=O)OC)=C(C(=O)OC)C12 (stereo unspecified) | > 100

tested on: SF-295 CNS; assay: NCI tumour cell line growth inhibition, 48 h

Compound | TGI [µM]
Cc1ccc2c(c1CCCC(C)(C)O)C(=O)C(=O)C(C(C)C)=C2O | > 100
C=C1C(=O)O[C@H]2[C@H]1[C@@H](OC(=O)C=C(C)C)CC1=C[C@@H](C[C@@]3(C)O[C@@H]23)OC1=O | 28.4
Cc1ccc2nc(-c3ccc(N)c(I)c3)sc2c1 | 44.9
O=c1[nH]cc(COCC(F)(F)C(F)(F)C(F)(F)C(F)F)c(=O)[nH]1 | > 100
O=C1NC(=O)C(CCO)(c2ccccc2)C(=O)N1 | > 100
Cc1ccc(C2CC(c3ccco3)=NN2c2ccccc2)o1 (stereo unspecified) | > 100
COC(=O)C(=C/c1ccc(OC)cc1)/C(C(=O)O)=C(/C)c1ccccc1 | > 100
COC(=O)c1ccc(/C=C2\N=C(C)OC2=O)cc1 | > 100
Nc1ccc(C(=O)NN2C(=O)C(Cl)C2c2ccccc2Cl)cc1 (stereo unspecified) | 12.6
COC(=O)C1OC(Oc2cc(O)c3c(=O)cc(-c4ccc(O)cc4)oc3c2)C(O)C(O)C1O (stereo unspecified) | > 100
C=CCn1c(=O)n(CC=C)c(=O)n(CC=C)c1=O | > 100
O=C1C(Cl)C(c2ccccc2)N1n1cnc2ccccc2c1=O (stereo unspecified) | > 100
CN(C)C(=O)OCOC(=O)N(C)C | > 100
CC(=O)OCC1OC(Nc2ncc(-c3ccc(C)cc3)s2)C(OC(C)=O)C(OC(C)=O)C1OC(C)=O (stereo unspecified) | > 100
CCCCN1C=CN2c3nc4cc(C)c(C)cc4n3C(C(=O)OC)=C(C(=O)OC)C12 (stereo unspecified) | > 100

tested on: HOP-92 NSCLC; assay: NCI tumour cell line growth inhibition, 48 h

Compound | TGI [µM]
Cc1ccc2c(c1CCCC(C)(C)O)C(=O)C(=O)C(C(C)C)=C2O | > 100
C=C1C(=O)O[C@H]2[C@H]1[C@@H](OC(=O)C=C(C)C)CC1=C[C@@H](C[C@@]3(C)O[C@@H]23)OC1=O | 4.15
Cc1ccc2nc(-c3ccc(N)c(I)c3)sc2c1 | 71.5
O=c1[nH]cc(COCC(F)(F)C(F)(F)C(F)(F)C(F)F)c(=O)[nH]1 | > 100
O=C1NC(=O)C(CCO)(c2ccccc2)C(=O)N1 | > 100
COC(=O)C(=C/c1ccc(OC)cc1)/C(C(=O)O)=C(/C)c1ccccc1 | > 100
COC(=O)c1ccc(/C=C2\N=C(C)OC2=O)cc1 | > 100
Nc1ccc(C(=O)NN2C(=O)C(Cl)C2c2ccccc2Cl)cc1 (stereo unspecified) | 14.9
COC(=O)C1OC(Oc2cc(O)c3c(=O)cc(-c4ccc(O)cc4)oc3c2)C(O)C(O)C1O (stereo unspecified) | > 100
C=CCn1c(=O)n(CC=C)c(=O)n(CC=C)c1=O | > 100
CN(C)C(=O)OCOC(=O)N(C)C | > 100
CC(=O)OCC1OC(Nc2ncc(-c3ccc(C)cc3)s2)C(OC(C)=O)C(OC(C)=O)C1OC(C)=O (stereo unspecified) | > 100
CCCCN1C=CN2c3nc4cc(C)c(C)cc4n3C(C(=O)OC)=C(C(=O)OC)C12 (stereo unspecified) | > 100

tested on: SNB-19 CNS; assay: NCI tumour cell line growth inhibition, 48 h

Compound | TGI [µM]
Cc1ccc2c(c1CCCC(C)(C)O)C(=O)C(=O)C(C(C)C)=C2O | > 100
C=C1C(=O)O[C@H]2[C@H]1[C@@H](OC(=O)C=C(C)C)CC1=C[C@@H](C[C@@]3(C)O[C@@H]23)OC1=O | 55.3
Cc1ccc2nc(-c3ccc(N)c(I)c3)sc2c1 | 86.4
O=c1[nH]cc(COCC(F)(F)C(F)(F)C(F)(F)C(F)F)c(=O)[nH]1 | > 100
O=C1NC(=O)C(CCO)(c2ccccc2)C(=O)N1 | > 100
Cc1ccc(C2CC(c3ccco3)=NN2c2ccccc2)o1 (stereo unspecified) | > 100
COC(=O)C(=C/c1ccc(OC)cc1)/C(C(=O)O)=C(/C)c1ccccc1 | > 100
COC(=O)c1ccc(/C=C2\N=C(C)OC2=O)cc1 | > 100
Nc1ccc(C(=O)NN2C(=O)C(Cl)C2c2ccccc2Cl)cc1 (stereo unspecified) | 30.6
COC(=O)C1OC(Oc2cc(O)c3c(=O)cc(-c4ccc(O)cc4)oc3c2)C(O)C(O)C1O (stereo unspecified) | > 100
C=CCn1c(=O)n(CC=C)c(=O)n(CC=C)c1=O | > 100
O=C1C(Cl)C(c2ccccc2)N1n1cnc2ccccc2c1=O (stereo unspecified) | > 100
CN(C)C(=O)OCOC(=O)N(C)C | > 100
CC(=O)OCC1OC(Nc2ncc(-c3ccc(C)cc3)s2)C(OC(C)=O)C(OC(C)=O)C1OC(C)=O (stereo unspecified) | > 100
CCCCN1C=CN2c3nc4cc(C)c(C)cc4n3C(C(=O)OC)=C(C(=O)OC)C12 (stereo unspecified) | > 100

tested on: UO-31 renal; assay: NCI tumour cell line growth inhibition, 48 h

Compound | TGI [µM]
Cc1ccc2c(c1CCCC(C)(C)O)C(=O)C(=O)C(C(C)C)=C2O | > 100
C=C1C(=O)O[C@H]2[C@H]1[C@@H](OC(=O)C=C(C)C)CC1=C[C@@H](C[C@@]3(C)O[C@@H]23)OC1=O | 20.9
Cc1ccc2nc(-c3ccc(N)c(I)c3)sc2c1 | 26.2
O=c1[nH]cc(COCC(F)(F)C(F)(F)C(F)(F)C(F)F)c(=O)[nH]1 | > 100
O=C1NC(=O)C(CCO)(c2ccccc2)C(=O)N1 | > 100
Cc1ccc(C2CC(c3ccco3)=NN2c2ccccc2)o1 (stereo unspecified) | > 100
COC(=O)C(=C/c1ccc(OC)cc1)/C(C(=O)O)=C(/C)c1ccccc1 | > 100
Nc1ccc(C(=O)NN2C(=O)C(Cl)C2c2ccccc2Cl)cc1 (stereo unspecified) | 30.8
COC(=O)C1OC(Oc2cc(O)c3c(=O)cc(-c4ccc(O)cc4)oc3c2)C(O)C(O)C1O (stereo unspecified) | > 100
C=CCn1c(=O)n(CC=C)c(=O)n(CC=C)c1=O | > 100
O=C1C(Cl)C(c2ccccc2)N1n1cnc2ccccc2c1=O (stereo unspecified) | > 100
CN(C)C(=O)OCOC(=O)N(C)C | > 100
CC(=O)OCC1OC(Nc2ncc(-c3ccc(C)cc3)s2)C(OC(C)=O)C(OC(C)=O)C1OC(C)=O (stereo unspecified) | 41
CCCCN1C=CN2c3nc4cc(C)c(C)cc4n3C(C(=O)OC)=C(C(=O)OC)C12 (stereo unspecified) | > 100

tested on: ACHN renal; assay: NCI tumour cell line growth inhibition, 48 h

Compound | TGI [µM]
Cc1ccc2c(c1CCCC(C)(C)O)C(=O)C(=O)C(C(C)C)=C2O | > 100
Cc1ccc2nc(-c3ccc(N)c(I)c3)sc2c1 | > 100
O=c1[nH]cc(COCC(F)(F)C(F)(F)C(F)(F)C(F)F)c(=O)[nH]1 | > 100
Cc1ccc(C2CC(c3ccco3)=NN2c2ccccc2)o1 (stereo unspecified) | > 100
COC(=O)C(=C/c1ccc(OC)cc1)/C(C(=O)O)=C(/C)c1ccccc1 | > 100
COC(=O)c1ccc(/C=C2\N=C(C)OC2=O)cc1 | > 100
Nc1ccc(C(=O)NN2C(=O)C(Cl)C2c2ccccc2Cl)cc1 (stereo unspecified) | 30
